These are literature values, as cited in patent publication US5516503A, “Diagnostic composition comprising a binuclear complex, its method of preparation and its use in magnetic resonance imaging” (Guerbet S.A., priority 1989, dated 1996).

SMILES strings stand for the structures.

For data set [1] the following is noted: information of Berlex Lab.
The next data set concerns male mice. To be noted: document FR-A-2 596 992.

With `CNC[C@H](O)[C@@H](O)[C@H](O)[C@H](O)CO.CNC[C@H](O)[C@@H](O)[C@H](O)[C@H](O)CO.O=C([O-])CN(CCN(CC(=O)[O-])CC(=O)O)CCN(CC(=O)[O-])CC(=O)O.[Gd+3]` [Magnevist, salt of di-N-methylglucamine (dimeglumine) of the complex Gd(III)-diethylenetriaminepentaacetic acid (DTPA)], in data set [1], the osmotic pressure is recorded as 1940 mosm/kg. In addition, the LD50 (commonly the dose expected to kill half of the subjects tested) with male mice is on record as 4.45 mmol/kg.
